Assay results as given in patent US20250179061A1 (SIRONAX LTD., priority 2022, published 2025).

Tested on: HT-29 cells
Test: HT-29 necroptosis cell viability assay (TNF-α/SMAC mimetic/zVAD-FMK, CellTiter-Glo)
Assay type: cell-based
Conditions: Homo sapiens, HT-29, HT-29 necroptosis cell viability, IC50 class symbols; read-out: Activity
Summary of the method: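 Necroptosis was triggered by TNF-α (10 ng/ml), SMAC mimetic (6 μM) and zVAD-FMK (10 μM) in serum-free medium during 20 h compound exposure (10 concentrations, threefold steps) of HT-29 cells. IC50 from duplicate dose-responses uses CellTiter-Glo ATP luminescence as viability read-out.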

**Q.** With `CCCOC1CN(c2cc(Oc3ccc(-n4ncn(Cc5c(F)cccc5F)c4=O)cc3)ccn2)C1` [Example 243, 4-(2,6-difluorobenzyl)-2-(4-((2-(3-propoxyazetidin-1-yl)pyridin-4-yl)oxy)phenyl)-2,4-dihydro-3H-1,2,4-triazol-3-one] as the molecule, how does the IC50 read?
**A.** The IC50 was less than 100 nM.

**Q.** For `C[C@H]1COCCN1c1cc(Oc2ccc(-n3ncn(Cc4c(F)cccc4F)c3=O)cc2)ccn1` [Example 244, (S)-4-(2,6-difluorobenzyl)-2-(4-((2-(3-methylmorpholino)pyridin-4-yl)oxy)phenyl)-2,4-dihydro-3H-1,2,4-triazol-3-one], which IC50 is on record?
**A.** The IC50 was 100 to 1000 nM.

**Q.** Which IC50 does the source give for `O=c1n(Cc2c(F)cccc2F)cnn1-c1ccc(Oc2ccnc(N3CCC34COC4)c2)cc1` [Example 245, 2-(4-((2-(6-oxa-1-azaspiro[3.3]heptan-1-yl)pyridin-4-yl)oxy)phenyl)-4-(2,6-difluorobenzyl)-2,4-dihydro-3H-1,2,4-triazol-3-one] here?
**A.** Its IC50 is 100 to 1000 nM.

**Q.** Which IC50 does the source give for `N#CC12CC(Nc3nccc(Oc4ccc(-n5ncn(Cc6c(F)cccc6F)c5=O)cc4F)c3F)(C1)C2` [Example 246, 3-((4-(4-(4-(2,6-difluorobenzyl)-5-oxo-4,5-dihydro-1H-1,2,4-triazol-1-yl)-2-fluorophenoxy)-3-fluoropyridin-2-yl)amino)bicyclo[1.1.1]pentane-1-carbonitrile] here?
**A.** The IC50 was less than 100 nM.

**Q.** `Cc1c(Oc2ccc(-n3ncn(Cc4c(F)cccc4F)c3=O)cc2)ccnc1NC12CC(C#N)(C1)C2` [Example 247, 3-((4-(4-(4-(2,6-difluorobenzyl)-5-oxo-4,5-dihydro-1H-1,2,4-triazol-1-yl)phenoxy)-3-methylpyridin-2-yl)amino)bicyclo[1.1.1]pentane-1-carbonitrile] was tested. Which IC50 did it give?
**A.** Its IC50 is less than 100 nM.

**Q.** With `N#CC12CC(Nc3nccc(Oc4ccc(-n5ncn(Cc6c(F)cccc6F)c5=O)cc4)c3Cl)(C1)C2` [Example 248, 3-((3-chloro-4-(4-(4-(2,6-difluorobenzyl)-5-oxo-4,5-dihydro-1H-1,2,4-triazol-1-yl)phenoxy)pyridin-2-yl)amino)bicyclo[1.1.1]pentane-1-carbonitrile] as the molecule, how does the IC50 read?
**A.** Its IC50 is less than 100 nM.

**Q.** With `CC1(O)CN(c2cc(Oc3ncc(-n4ncn(Cc5c(F)cccc5F)c4=O)cc3F)ccn2)C1` [Example 249, 4-(2,6-difluorobenzyl)-2-(5-fluoro-6-((2-(3-hydroxy-3-methylazetidin-1-yl)pyridin-4-yl)oxy)pyridin-3-yl)-2,4-dihydro-3H-1,2,4-triazol-3-one] as the molecule, how does the IC50 read?
**A.** Its IC50 is 100 to 1000 nM.

**Q.** How did the IC50 turn out when `C[C@H]1[C@@H](O)CN1c1cc(Oc2ncc(-n3ncn(Cc4c(F)cccc4F)c3=O)cc2F)ccn1` [Example 250, 4-(2,6-difluorobenzyl)-2-(5-fluoro-6-((2-((2S,3S)-3-hydroxy-2-methylazetidin-1-yl)pyridin-4-yl)oxy)pyridin-3-yl)-2,4-dihydro-3H-1,2,4-triazol-3-one] was run?
**A.** The IC50 was less than 100 nM.

**Q.** Which IC50 does the source give for `Cc1cnc(N2CC(C)(C#N)C2)cc1Oc1ccc(-n2ncn(Cc3c(F)cccc3F)c2=O)cc1Cl` [Example 251, 1-(4-(2-chloro-4-(4-(2,6-difluorobenzyl)-5-oxo-4,5-dihydro-1H-1,2,4-triazol-1-yl)phenoxy)-5-methylpyridin-2-yl)-3-methylazetidine-3-carbonitrile] here?
**A.** The IC50 was less than 100 nM.

**Q.** `N#CC1(F)CN(c2cc(Oc3ccc(-n4ncn(Cc5c(F)cccc5F)c4=O)cc3)ccn2)C1` [Example 252, 1-(4-(4-(4-(2,6-difluorobenzyl)-5-oxo-4,5-dihydro-1H-1,2,4-triazol-1-yl)phenoxy)pyridin-2-yl)-3-fluoroazetidine-3-carbonitrile] was tested. Which IC50 did it give?
**A.** Its IC50 is 100 to 1000 nM.

**Q.** With `CC(C)OC1CN(c2cccc(Oc3ccc(-n4ncn(Cc5c(F)cccc5F)c4=O)cc3)n2)C1` [Example 253, 4-(2,6-difluorobenzyl)-2-(4-((6-(3-isopropoxyazetidin-1-yl)pyridin-2-yl)oxy)phenyl)-2,4-dihydro-3H-1,2,4-triazol-3-one] as the molecule, how does the IC50 read?
**A.** Its IC50 is less than 100 nM.

**Q.** With `CC1(C)CC(=O)N(c2cc(Oc3ccc(-n4ncn(Cc5c(F)cccc5F)c4=O)cc3)ccn2)C1` [Example 254, 4-(2,6-difluorobenzyl)-2-(4-((2-(4,4-dimethyl-2-oxopyrrolidin-1-yl)pyridin-4-yl)oxy)phenyl)-2,4-dihydro-3H-1,2,4-triazol-3-one] as the molecule, how does the IC50 read?
**A.** The IC50 was 100 to 1000 nM.

**Q.** With `N#CC1CCN(c2cc(Oc3ccc(-n4ncn(Cc5c(F)cccc5F)c4=O)cc3)ccn2)CC1` [Example 255, 1-(4-(4-(4-(2,6-difluorobenzyl)-5-oxo-4,5-dihydro-1H-1,2,4-triazol-1-yl)phenoxy)pyridin-2-yl)piperidine-4-carbonitrile] as the molecule, how does the IC50 read?
**A.** Its IC50 is 100 to 1000 nM.

**Q.** Which IC50 does the source give for `CC1(C#N)CN(c2nccc(Oc3ccc(-n4ncn(Cc5c(F)cccc5F)c4=O)cc3Cl)c2Cl)C1` [Example 256, 1-(3-chloro-4-(2-chloro-4-(4-(2,6-difluorobenzyl)-5-oxo-4,5-dihydro-1H-1,2,4-triazol-1-yl)phenoxy)pyridin-2-yl)-3-methylazetidine-3-carbonitrile] here?
**A.** The IC50 was less than 100 nM.

**Q.** `CC1(C#N)CN(c2cc(Oc3ccc(-n4ncn(Cc5c(F)cccc5F)c4=O)cc3F)c(Cl)cn2)C1` [Example 257, 1-(5-chloro-4-(4-(4-(2,6-difluorobenzyl)-5-oxo-4,5-dihydro-1H-1,2,4-triazol-1-yl)-2-fluorophenoxy)pyridin-2-yl)-3-methylazetidine-3-carbonitrile] was tested. Which IC50 did it give?
**A.** The IC50 was less than 100 nM.

**Q.** `O=c1n(Cc2c(F)cccc2F)cnn1-c1ccc(Oc2ccnc(NCC3CCOC3)c2)cc1` (centres unmarked) [Example 259, 4-(2,6-difluorobenzyl)-2-(4-((2-(((tetrahydrofuran-3-yl)methyl)amino)pyridin-4-yl)oxy)phenyl)-2,4-dihydro-3H-1,2,4-triazol-3-one] was tested. Which IC50 did it give?
**A.** Its IC50 is 100 to 1000 nM.

**Q.** `CCOC1CN(c2cc(Oc3ccc(-n4ncn(Cc5c(F)cccc5F)c4=O)cc3Cl)c(Cl)cn2)C1` [Example 260, 2-(3-chloro-4-((5-chloro-2-(3-ethoxyazetidin-1-yl)pyridin-4-yl)oxy)phenyl)-4-(2,6-difluorobenzyl)-2,4-dihydro-3H-1,2,4-triazol-3-one] was tested. Which IC50 did it give?
**A.** Its IC50 is less than 100 nM.

**Q.** Which IC50 does the source give for `CCOC1CN(c2nccc(Oc3ccc(-n4ncn(Cc5c(F)cccc5F)c4=O)cc3)c2Cl)C1` [Example 261, 2-(4-((3-chloro-2-(3-ethoxyazetidin-1-yl)pyridin-4-yl)oxy)phenyl)-4-(2,6-difluorobenzyl)-2,4-dihydro-3H-1,2,4-triazol-3-one] here?
**A.** Its IC50 is 100 to 1000 nM.

**Q.** How did the IC50 turn out when `CC1(C#N)CN(c2cc(Oc3ccc(-n4ncn(Cc5c(F)cccc5F)c4=O)cc3F)c(F)cn2)C1` [Example 262, 1-(4-(4-(4-(2,6-difluorobenzyl)-5-oxo-4,5-dihydro-1H-1,2,4-triazol-1-yl)-2-fluorophenoxy)-5-fluoropyridin-2-yl)-3-methylazetidine-3-carbonitrile] was run?
**A.** Its IC50 is less than 100 nM.

**Q.** Which IC50 does the source give for `Cc1cnc(N2CC3(CCOCC3)C2)cc1Oc1ccc(-n2ncn(Cc3c(F)cccc3F)c2=O)cc1` [Example 263, 4-(2,6-difluorobenzyl)-2-(4-((5-methyl-2-(7-oxa-2-azaspiro[3.5]nonan-2-yl)pyridin-4-yl)oxy)phenyl)-2,4-dihydro-3H-1,2,4-triazol-3-one] here?
**A.** The IC50 was less than 100 nM.

**Q.** For `N#CC1CN(c2cc(Oc3ccc(-n4ncn(Cc5c(F)cccc5F)c4=O)cc3)ccn2)CC1O` (centres unmarked) [Example 264, 1-(4-(4-(4-(2,6-difluorobenzyl)-5-oxo-4,5-dihydro-1H-1,2,4-triazol-1-yl)phenoxy)pyridin-2-yl)-4-hydroxypyrrolidine-3-carbonitrile], which IC50 is on record?
**A.** The IC50 was less than 100 nM.

**Q.** How did the IC50 turn out when `CC1(CO)CCN(c2cc(Oc3ccc(-n4ncn(Cc5c(F)cccc5F)c4=O)cc3)ccn2)C1` (centres unmarked) [Example 265, 4-(2,6-difluorobenzyl)-2-(4-((2-(3-(hydroxymethyl)-3-methylpyrrolidin-1-yl)pyridin-4-yl)oxy)phenyl)-2,4-dihydro-3H-1,2,4-triazol-3-one] was run?
**A.** The IC50 was 100 to 1000 nM.

**Q.** For `CCOC1CN(c2cc(Oc3ccc(-n4ncn(Cc5c(F)cccc5F)c4=O)cc3)c(C)cn2)C1` [Example 266, 4-(2,6-difluorobenzyl)-2-(4-((2-(3-ethoxyazetidin-1-yl)-5-methylpyridin-4-yl)oxy)phenyl)-2,4-dihydro-3H-1,2,4-triazol-3-one], which IC50 is on record?
**A.** The IC50 was less than 100 nM.

**Q.** Which IC50 does the source give for `Cc1cnc(NC23CC(C#N)(C2)C3)cc1Oc1ccc(-n2ncn(Cc3c(F)cccc3F)c2=O)cc1Cl` [Example 267, 3-((4-(2-chloro-4-(4-(2,6-difluorobenzyl)-5-oxo-4,5-dihydro-1H-1,2,4-triazol-1-yl)phenoxy)-5-methylpyridin-2-yl)amino)bicyclo[1.1.1]pentane-1-carbonitrile] here?
**A.** Its IC50 is less than 100 nM.

**Q.** With `C[C@H]1CCCN1c1cc(Oc2ccc(-n3ncn(Cc4c(F)cccc4F)c3=O)cc2)ccn1` [Example 268, (S)-4-(2,6-difluorobenzyl)-2-(4-((2-(2-methylpyrrolidin-1-yl)pyridin-4-yl)oxy)phenyl)-2,4-dihydro-3H-1,2,4-triazol-3-one] as the molecule, how does the IC50 read?
**A.** Its IC50 is less than 100 nM.

**Q.** With `O=c1n(Cc2c(F)cccc2F)cnn1-c1ccc(Oc2ccnc(N3CCOC4(COC4)C3)c2)cc1` [Example 269, 2-(4-((2-(2,5-dioxa-8-azaspiro[3.5]nonan-8-yl)pyridin-4-yl)oxy)phenyl)-4-(2,6-difluorobenzyl)-2,4-dihydro-3H-1,2,4-triazol-3-one] as the molecule, how does the IC50 read?
**A.** The IC50 was 100 to 1000 nM.

**Q.** `N#CC12CC(Nc3cc(Oc4ccc(-n5ncn(Cc6c(F)cccc6F)c5=O)cc4F)c(Cl)cn3)(C1)C2` [Example 270, 3-((5-chloro-4-(4-(4-(2,6-difluorobenzyl)-5-oxo-4,5-dihydro-1H-1,2,4-triazol-1-yl)-2-fluorophenoxy)pyridin-2-yl)amino)bicyclo[1.1.1]pentane-1-carbonitrile] was tested. Which IC50 did it give?
**A.** Its IC50 is less than 100 nM.

**Q.** With `Cc1c(Oc2ccc(-n3ncn(Cc4c(F)cccc4F)c3=O)cc2F)ccnc1NC12CC(C#N)(C1)C2` [Example 271, 3-((4-(4-(4-(2,6-difluorobenzyl)-5-oxo-4,5-dihydro-1H-1,2,4-triazol-1-yl)-2-fluorophenoxy)-3-methylpyridin-2-yl)amino)bicyclo[1.1.1]pentane-1-carbonitrile] as the molecule, how does the IC50 read?
**A.** Its IC50 is less than 100 nM.

**Q.** Which IC50 does the source give for `N#CC12CC(Nc3cc(Oc4ccc(-n5ncn(Cc6c(F)cccc6F)c5=O)cc4Cl)c(F)cn3)(C1)C2` [Example 272, 3-((4-(2-chloro-4-(4-(2,6-difluorobenzyl)-5-oxo-4,5-dihydro-1H-1,2,4-triazol-1-yl)phenoxy)-5-fluoropyridin-2-yl)amino)bicyclo[1.1.1]pentane-1-carbonitrile] here?
**A.** The IC50 was less than 100 nM.
